Reference: patent publication US5475014A, “Oxazolidone derivative” (Eisai Co., Ltd., priority 1991, dated 1995)

What was measured:
MAO-A = target: T1, MAO-A (Rattus norvegicus, UniProt P21396); assay: MAO-A inhibition activity with rat forebrain (14C-5-HT substrate); format: biochemical, rat (male Wistar); settings: 5-HT 200 μM, read-out: Inhibiting activity MAO-A, IC50
T1 construct: suspension of 1 part by volume of the forebrains of male Wistar rats; from tissue; host or cells: forebrain of male Wistar rats, suspension in potassium phosphate buffer
T1 sequence (P21396 1-526): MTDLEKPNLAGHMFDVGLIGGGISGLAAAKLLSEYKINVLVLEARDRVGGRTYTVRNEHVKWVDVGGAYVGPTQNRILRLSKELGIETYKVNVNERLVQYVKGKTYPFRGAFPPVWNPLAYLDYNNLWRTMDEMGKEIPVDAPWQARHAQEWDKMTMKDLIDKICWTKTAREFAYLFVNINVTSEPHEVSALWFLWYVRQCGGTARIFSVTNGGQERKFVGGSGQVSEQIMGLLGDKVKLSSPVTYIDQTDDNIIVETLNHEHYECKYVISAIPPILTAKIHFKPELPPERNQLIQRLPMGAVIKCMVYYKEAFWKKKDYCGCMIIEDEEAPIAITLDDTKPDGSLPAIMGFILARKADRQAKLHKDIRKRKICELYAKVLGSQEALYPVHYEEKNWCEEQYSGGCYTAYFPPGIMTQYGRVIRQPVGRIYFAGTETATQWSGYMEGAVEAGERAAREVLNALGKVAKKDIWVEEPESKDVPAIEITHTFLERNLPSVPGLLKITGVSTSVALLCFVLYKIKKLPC
Description: Determination of MAO inhibition activity with the use of rat forebrain:
The MAO inhibition activity was determined by a method of Prada et al. (J. Pharmacol. Exp. Ther., 248, 400-414 (1989)).
The enzyme reaction was conducted in 300 μl of a solution having the following composition:
^14 C-labelled enzyme substrate
The enzyme source used was a suspension of 1 part by volume of the forebrains of male Wistar rats in 5 parts by volume of a 0.1M potassium phosphate buffer (pH 7.4). The enzyme source was mixed with the test compound and the mixture was prewarmed at 37° C. for 10 min. Then the enzyme substrate was added thereto to initiate the enzyme reaction. After 10 min, 200 μl of 2N hydrochloric acid was added to terminate the reaction.
As the substrates for MAO-A and MAO-B, 5-HT (serotonin) and PEA (β-phenethylamine) each labelled with ^14 C were used, respectively. The specific radioactivities of 5-HT and PEA were regulated to 11.1 MBq/mmol and 29.6 MBq/mmol, respectively, and the concentrations of them were 200 μM and 20 μM, respectively, in the reaction.
The test compound was dissolved in distilled water so that an intended concentration could be obtained in the enzyme reaction. When the test compound was insoluble in water, it was dissolved in dimethyl sulfoxide to obtain a 10% solution.
Diethyl ether and n-heptane were used as […], respectively. After the termination of the enzyme reaction, 3 ml of the solvent was added to the reaction mixture and shaken for 10 min. After centrifugation at 3,000 rpm for about 10 min, the lower aqueous layer was frozen in dry ice/acetone. The upper organic layer was recovered by decantation and the radioactivity thereof was determined with a liquid scintillation counter.
The inhibiting activities of the test compounds against MAO A and MAO B are given at the concentrations of 10^-7 M and 10^-6 M or by IC50 values.

MAO-B = target: T2, MAO-B (Rattus norvegicus, UniProt P19643); assay: MAO-B inhibition activity with rat forebrain (14C-PEA substrate); format: biochemical, rat (male Wistar); settings: 10^-5 M, read-out: Inhibiting activity MAO-B (at 10^-5 M)
T2 construct: suspension of 1 part by volume of the forebrains of male Wistar rats; from tissue; host or cells: forebrain of male Wistar rats, suspension in potassium phosphate buffer
T2 sequence (P19643 1-520): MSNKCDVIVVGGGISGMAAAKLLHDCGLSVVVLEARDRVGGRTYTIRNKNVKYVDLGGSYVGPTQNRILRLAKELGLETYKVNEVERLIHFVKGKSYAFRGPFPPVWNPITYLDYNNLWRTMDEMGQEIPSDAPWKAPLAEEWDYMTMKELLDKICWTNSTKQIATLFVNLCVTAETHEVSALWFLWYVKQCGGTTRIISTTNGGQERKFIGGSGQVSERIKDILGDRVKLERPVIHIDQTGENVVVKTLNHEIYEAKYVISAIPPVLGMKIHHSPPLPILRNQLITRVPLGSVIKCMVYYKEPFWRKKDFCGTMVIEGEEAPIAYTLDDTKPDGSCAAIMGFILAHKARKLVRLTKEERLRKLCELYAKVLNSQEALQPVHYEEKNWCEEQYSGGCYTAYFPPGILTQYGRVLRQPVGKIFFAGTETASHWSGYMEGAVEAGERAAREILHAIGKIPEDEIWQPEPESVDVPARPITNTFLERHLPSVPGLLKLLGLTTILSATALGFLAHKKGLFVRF

IC50 (MAO-A): 0.045 µM | inhibition at 10 µM (MAO-B): 35%
Compound: COCC1CN(c2ccc3nc(C(C)(O)CCC#N)sc3c2)C(=O)O1 (centres unmarked) [Example 37]
